Measurements as given in patent US20250206757A1 (GASHERBRUM BIO, INC., priority 2022, published 2025).

Target: GLP-1 Receptor (Homo sapiens, UniProt P43220)
Test: GLP-1R agonist cAMP stimulation assay (HEK293/GLP1R/CRE-LUC cells, HTRF cAMP dynamic 2 kit)
Assay type: cell-based
Conditions: HEK293/CRE-Luc cell line stably expressing the GLP-1 Receptor; 30 min incubation at 37° C.
Method in brief: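 HEK293 cells stably expressing GLP-1R with CRE-Luc, 1000 cells/well in DPBS with 0.5 mM IBMX and 0.10% BSA, exposed to half-log compound dilutions for 30 min at 37 °C. cAMP measured by HTRF (665/615 nm) after 1 h at room temperature.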

GLP-1 Receptor, sequence (P43220 24-463): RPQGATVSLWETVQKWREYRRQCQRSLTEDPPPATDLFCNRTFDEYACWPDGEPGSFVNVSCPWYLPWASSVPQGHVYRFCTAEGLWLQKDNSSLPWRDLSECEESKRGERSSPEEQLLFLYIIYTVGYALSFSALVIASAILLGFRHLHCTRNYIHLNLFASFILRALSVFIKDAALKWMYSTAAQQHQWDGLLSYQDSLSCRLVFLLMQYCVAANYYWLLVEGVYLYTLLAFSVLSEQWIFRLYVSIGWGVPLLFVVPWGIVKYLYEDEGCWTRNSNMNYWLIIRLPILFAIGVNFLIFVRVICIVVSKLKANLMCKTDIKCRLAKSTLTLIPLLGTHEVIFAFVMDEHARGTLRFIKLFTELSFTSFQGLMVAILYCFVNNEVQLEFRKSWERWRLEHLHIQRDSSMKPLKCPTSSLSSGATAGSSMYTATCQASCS

SMILES | EC50 [nM]
Fc1cc(Cl)ccc1COc1nc2cc(Cc3nc4cc(-c5nnc(C(F)(F)F)[nH]5)ncc4n3C[C@@H]3CCO3)ccc2cc1C(F)(F)F [Compound 98, 2-[(4-chloro-2-fluorophenyl)methoxy]-7-[(3-{[(2S)-oxetan-2-yl]methyl}-6-[5-(trifluoromethyl)-4H-1,2,4-triazol-3-yl]-3H-imidazo[4,5-c]pyridin-2-yl)methyl]-3-(trifluoromethyl)quinoline] | < 1
Fc1cc(Cl)ccc1COc1nc2c(cc1C(F)(F)F)CCN(Cc1nc3cc(-c4nnn[nH]4)cnc3n1C[C@@H]1CCO1)C2 [Compound 15, 2-[(4-chloro-2-fluorophenyl)methoxy]-7-[(3-{[(2S)-oxetan-2-yl]methyl}-6-(1H-1,2,3,4-tetrazol-5-yl)-3H-imidazo[4,5-b]pyridin-2-yl)methyl]-3-(trifluoromethyl)-5,6,7,8-tetrahydro-1,7-naphthyridine] | < 1
Cc1cc2c(nc1OCc1ccc(Cl)cc1F)CN(Cc1nc3cc(-c4nnc(C(F)F)[nH]4)cnc3n1C[C@@H]1CCO1)CC2 [Compound 52, 2-[(4-chloro-2-fluorophenyl)methoxy]-7-({6-[5-(difluoromethyl)-4H-1,2,4-triazol-3-yl]-3-{[(2S)-oxetan-2-yl]methyl}-3H-imidazo[4,5-b]pyridin-2-yl}methyl)-3-methyl-5,6,7,8-tetrahydro-1,7-naphthyridine] | < 1
O=C(O)c1ccc2c(c1)nc(CN1CCc3cc(C(F)(F)F)c(OCc4ccc(Cl)cc4F)nc3C1)n2C[C@@H]1CCO1 [Compound 28, 2-({2-[(4-chloro-2-fluorophenyl)methoxy]-3-(trifluoromethyl)-5,6,7,8-tetrahydro-1,7-naphthyridin-7-yl}methyl)-1-{[(2S)-oxetan-2-yl]methyl}-1H-1,3-benzodiazole-5-carboxylic acid] | < 1
FC(F)(F)c1cc2c(nc1OCc1ccc(Cl)cc1)CN(Cc1nc3cc(-c4nnc[nH]4)ncc3n1C[C@@H]1CCO1)CC2 [Compound 64, 2-[(4-chlorophenyl)methoxy]-7-[(3-{[(2S)-oxetan-2-yl]methyl}-6-(4H-1,2,4-triazol-3-yl)-3H-imidazo[4,5-c]pyridin-2-yl)methyl]-3-(trifluoromethyl)-5,6,7,8-tetrahydro-1,7-naphthyridine] | 1 to 300
N#Cc1nnc(-c2cnc3c(c2)nc(CN2CCc4cc(C(F)(F)F)c(OCc5ccc(Cl)cc5F)nc4C2)n3C[C@@H]2CCO2)[nH]1 [Compound 17, 5-[2-({2-[(4-chloro-2-fluorophenyl)methoxy]-3-(trifluoromethyl)-5,6,7,8-tetrahydro-1,7-naphthyridin-7-yl}methyl)-3-{1[(2S)-oxetan-2-yl]methyl}-3H-imidazo[4,5-b]pyridin-6-yl]-4H-1,2,4-triazole-3-carbonitrile] | < 1
N#CC1(Cc2cc(-c3nnc(C(F)(F)F)[nH]3)cnc2CN2CCc3cc(C(F)(F)F)c(OCc4ccc(Cl)cc4F)nc3C2)CC1 [Compound 10, 1-{[2-({2-[(4-chloro-2-fluorophenyl)methoxy]-3-(trifluoromethyl)-5,6,7,8-tetrahydro-1,7-naphthyridin-7-yl}methyl)-5-[5-(trifluoromethyl)-4H-1,2,4-triazol-3-yl]pyridin-3-yl]methyl}cyclopropane-1-carbonitrile] | 1 to 300
O=C(NCC(F)(F)F)c1ccc2c(nc(CN3CCc4cc(C(F)(F)F)c(OCc5ccc(Cl)cc5F)nc4C3)n2C[C@@H]2CCO2)c1F [Compound 21, 2-({2-[(4-chloro-2-fluorophenyl)methoxy]-3-(trifluoromethyl)-5,6,7,8-tetrahydro-1,7-naphthyridin-7-yl}methyl)-4-fluoro-1-{[(2S)-oxetan-2-yl]methyl}-N-(2,2,2-trifluoroethyl)-1H-1,3-benzodiazole-5-carboxamide] | 1 to 300
O=c1[nH]c(-c2ccc3c(nc(CN4CCc5cc(C(F)(F)F)c(OCc6ccc(Cl)cc6F)nc5C4)n3C[C@@H]3CCO3)c2F)no1 [Compound 47, 3-[2-({2-[(4-chloro-2-fluorophenyl)methoxy]-3-(trifluoromethyl)-5,6,7,8-tetrahydro-1,7-naphthyridin-7-yl}methyl)-4-fluoro-1-{[(2S)-oxetan-2-yl]methyl}-1H-1,3-benzodiazol-5-yl]-4,5-dihydro-1,2,4-oxadiazol-5-one] | < 1
N#CC1(Cc2cc(-c3nnc(C(F)(F)F)[nH]3)cnc2CN2CCc3cc(Cl)c(OCc4ccc(Cl)cc4F)nc3C2)CC1 [Compound 11, 1-{[2-({3-chloro-2-[(4-chloro-2-fluorophenyl)methoxy]-5,6,7,8-tetrahydro-1,7-naphthyridin-7-yl}methyl)-5-[5-(trifluoromethyl)-4H-1,2,4-triazol-3-yl]pyridin-3-yl]methyl}cyclopropane-1-carbonitrile] | > 300
O=C(O)c1ccc2c(nc(CN3CCc4cc(C(F)(F)F)c(OCc5ccc(Cl)cc5F)nc4C3)n2C[C@@H]2CCO2)c1F [Compound 27, 2-({2-[(4-chloro-2-fluorophenyl)methoxy]-3-(trifluoromethyl)-5,6,7,8-tetrahydro-1,7-naphthyridin-7-yl}methyl)-4-fluoro-1-{[(2S)-oxetan-2-yl]methyl}-1H-1,3-benzodiazole-5-carboxylic acid] | 1 to 300

The next lines start with the values.

EC50 [nM] | SMILES
< 1 | Cc1cc2c(nc1OCc1c(F)cc(Cl)cc1F)CN(Cc1nc3cc(-c4noc(=O)[nH]4)ncc3n1C[C@@H]1CCO1)CC2 [Compound 34, 3-[2-({2-[(4-chloro-2,6-difluorophenyl)methoxy]-3-methyl-5,6,7,8-tetrahydro-1,7-naphthyridin-7-yl}methyl)-3-{[(2S)-oxetan-2-yl]methyl}-3H-imidazo[4,5-c]pyridin-6-yl]-4,5-dihydro-1,2,4-oxadiazol-5-one]
< 1 | Cc1nnc(-c2cc3nc(CN4CCc5cc(C(F)(F)F)c(OCc6ccc(Cl)cc6F)nc5C4)n(C[C@@H]4CCO4)c3cn2)[nH]1 [Compound 62, 2-[(4-chloro-2-fluorophenyl)methoxy]-7-{[6-(5-methyl-4H-1,2,4-triazol-3-yl)-3-{[(2S)-oxetan-2-yl]methyl}-3H-imidazo[4,5-c]pyridin-2-yl]methyl}-3-(trifluoromethyl)-5,6,7,8-tetrahydro-1,7-naphthyridine]
< 1 | Cc1cc2c(nc1OCc1c(F)cc(Cl)cc1F)CN(Cc1nc3cc(-c4nnc(C(F)(F)F)[nH]4)ncc3n1C[C@@H]1CCO1)CC2 [Compound 55, 2-[(4-chloro-2,6-difluorophenyl)methoxy]-3-methyl-7-[(3-{1[(2S)-oxetan-2-yl]methyl}-6-[5-(trifluoromethyl)-4H-1,2,4-triazol-3-yl]-3H-imidazo[4,5-c]pyridin-2-yl)methyl]-5,6,7,8-tetrahydro-1,7-naphthyridine]
< 1 | N#Cc1cc2c(nc1OCc1c(F)cc(Cl)cc1F)CN(Cc1nc3cc(-c4nnc(C(F)(F)F)[nH]4)ncc3n1C[C@@H]1CCO1)CC2 [Compound 71, 2-[(4-chloro-2,6-difluorophenyl)methoxy]-7-[(3-{[(2S)-oxetan-2-yl]methyl}-6-[5-(trifluoromethyl)-4H-1,2,4-triazol-3-yl]-3H-imidazo[4,5-c]pyridin-2-yl)methyl]-5,6,7,8-tetrahydro-1,7-naphthyridine-3-carbonitrile]
< 1 | CC(c1nc2cc(-c3nnc(C#N)[nH]3)ncc2n1C[C@@H]1CCO1)N1CCc2cc(C(F)(F)F)c(OCc3c(F)cc(Cl)cc3F)nc2C1 (stereo partly drawn) [Compound 84, 5-[2-(1-{2-[(4-chloro-2,6-difluorophenyl)methoxy]-3-(trifluoromethyl)-5,6,7,8-tetrahydro-1,7-naphthyridin-7-yl}ethyl)-3-{1[(2S)-oxetan-2-yl]methyl}-3H-imidazo[4,5-c]pyridin-6-yl]-4H-1,2,4-triazole-3-carbonitrile]
< 1 | Fc1cc(Cl)ccc1COc1nc2c(cc1Cl)CCN(Cc1nc3cc(-c4nnc(C(F)(F)F)[nH]4)ncc3n1C[C@@H]1CCO1)C2 [Compound 5, 3-chloro-2-[(4-chloro-2-fluorophenyl)methoxy]-7-[(3-{1[(2S)-oxetan-2-yl]methyl}-6-[5-(trifluoromethyl)-4H-1,2,4-triazol-3-yl]-3H-imidazo[4,5-c]pyridin-2-yl)methyl]-5,6,7,8-tetrahydro-1,7-naphthyridine]
< 1 | Fc1cc(Cl)ccc1COc1nc2c(cc1C(F)F)CCN(Cc1nc3cc(-c4nnc(C(F)(F)F)[nH]4)ncc3n1C[C@@H]1CCO1)C2 [Compound 72, 2-[(4-chloro-2-fluorophenyl)methoxy]-3-(difluoromethyl)-7-[(3-{[(2S)-oxetan-2-yl]methyl}-6-[5-(trifluoromethyl)-4H-1,2,4-triazol-3-yl]-3H-imidazo[4,5-c]pyridin-2-yl)methyl]-5,6,7,8-tetrahydro-1,7-naphthyridine]
< 1 | Fc1cc(Cl)ccc1COc1nc2c(cc1C(F)(F)F)CCN(Cc1nc3cc(-c4nnc(C(F)(F)F)[nH]4)nnc3n1C[C@@H]1CCO1)C2 [Compound 6, 2-[(4-chloro-2-fluorophenyl)methoxy]-7-[(7-{[(2S)-oxetan-2-yl]methyl}-3-[5-(trifluoromethyl)-4H-1,2,4-triazol-3-yl]-7H-imidazo[4,5-c]pyridazin-6-yl)methyl]-3-(trifluoromethyl)-5,6,7,8-tetrahydro-1,7-naphthyridine]
< 1 | Cc1cc2c(nc1OCc1c(F)cc(Cl)cc1F)CN(Cc1nc3cc(-c4nnc(C(F)F)[nH]4)cnc3n1C[C@@H]1CCO1)CC2 [Compound 53, 2-[(4-chloro-2,6-difluorophenyl)methoxy]-7-({6-[5-(difluoromethyl)-4H-1,2,4-triazol-3-yl]-3-{1[(2S)-oxetan-2-yl]methyl}-3H-imidazo[4,5-b]pyridin-2-yl}methyl)-3-methyl-5,6,7,8-tetrahydro-1,7-naphthyridine]
< 1 | Fc1cc(Cl)ccc1COc1nc2c(cc1Cl)CCN(Cc1nc3cc(-c4nnc(C(F)(F)F)[nH]4)nnc3n1C[C@@H]1CCO1)C2 [Compound 7, 3-chloro-2-[(4-chloro-2-fluorophenyl)methoxy]-7-[(7-{[(2S)-oxetan-2-yl]methyl}-3-[5-(trifluoromethyl)-4H-1,2,4-triazol-3-yl]-7H-imidazo[4,5-c]pyridazin-6-yl)methyl]-5,6,7,8-tetrahydro-1,7-naphthyridine]
